Data reported in paper PMC11826341 (PNAS Nexus, 2025).
“Also recorded” adds a separate entry of the source.

How the values were obtained:
[1] = test system: cultured hippocampal neurons
[2] = test system: sEPSCNMDAR, synaptic NMDARs of cultured hippocampal neurons; type: cell-based, rat
[3] = test system: cultured hippocampal neurons; conditions: 48 h

CN[C@@H]1C[C@H]2O[C@@](C)([C@@H]1OC)n1c3ccccc3c3c4c(c5c6ccccc6n2c5c31)C(=O)NC4 [STRO, staurosporine]
Apoptotic neurons [1]: 30.85%
Dead (apoptotic) neurons [1]: 76.99%

N[C@H](CCCP(=O)(O)O)C(=O)O [AP5, (2R)-amino-5-phosphonovaleric acid]
Neuroprotection against STRO [1]: did not exert neuroprotection

CC(C(O)c1ccc(O)cc1)N1CCC(Cc2ccccc2)CC1 (centres unmarked) [ifenprodil]
sEPSCNMDAR amplitude [2]: strongly reduced amplitudes; also recorded: significantly less so in mature neurons

CN[C@H](CC(=O)O)C(=O)O [NMDA, N-methyl-D-aspartate]
Neurons killed [3]: ~80%
